Columns and labels:
β-Pix-SH3 = target: T1, β-Pix-SH3 (Homo sapiens, UniProt Q14155); details: cited from earlier work
T1 construct: gene ARHGEF7; β-Pix SH3 domain
T1 sequence (Q14155 184-243): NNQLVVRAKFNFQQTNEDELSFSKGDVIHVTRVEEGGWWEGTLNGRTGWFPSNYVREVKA
Source text: Remarkably, Kd values calculated for the Sam68-SH3-interactions (considering the aforementioned correction value) lie in the low nanomolar range (cf. Fig. 1B). This is unexpected for SH3 domains, whose affinities are considered to lie in the low micromolar range [2], [51]. However, critical examination of the literature challenges the generality of the latter proposition. […] This can have a significant influence on binding-strength, as illustrated for instance for the Abp1-SH3 domain, comprising a Kd-value of 100 µM to a 14-mer ligand-peptide, and 40 µM after elongation to a 17-mer peptide. Nevertheless, some values obtained for Sam68-SH3 interactions still are one order of magnitude lower than even the best reported in the literature. Likely, this is due to an artifical avidity effect resulting from the use of the SH3-phages. As the SH3 domains bind to more than one of the PxxP-motifs, it is conceivable that one phage-particle docks to two or more PxxP-motifs of an individual Sam68 molecule via multiple SH3 domains. Consequently, even after dissociation of one SH3-PxxP-pair, the phage would still be retained by the protein. Kinetically, this corresponds to a decrease in the off-rate and concomitantly to a decrease in the Kd value. The affinity gain of the interaction is not due to cooperativity, as is evident from the Hill-transformed ELISA data yielding Hill-coefficients α of 1.0. […]

Hck = Hck (Homo sapiens, UniProt P08631); details: n = 3
Chain of Hck (P08631 78-138): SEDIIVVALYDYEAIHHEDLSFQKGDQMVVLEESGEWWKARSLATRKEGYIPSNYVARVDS
Procedure: (§1) To characterize the binding of SH3-phages to recombinant proteins, phage-ELISA analyses were performed. First, 1 µg of recombinant protein per well was immobilized on 96-well MaxiSorp plates (Nunc) over night. After washing thrice with PBS/T (PBS with 0.1 % Tween-20) and blocking with 5 % BSA in PBS, dilution-series of the respective phage-supernatants in 2×YTAmp,Kana were added and incubated for 1 h. After washing 10 times with PBS/T, an HRP-coupled anti-M13-antibody (GE Healthcare, 27-9421-01) diluted 1 : 5000 in blocking solution was added for 1 h. After washing again 10 times, TMB substrate solution was added, the reaction finally stopped by addition of 0.5 M H2SO4, and the result read out by measuring OD450.
(§2) First, we aimed at quantifying the binding affinities of the SH3-displaying phages to Sam68. To this end, we established a phage-ELISA procedure to separately analyse phage supernatants of the ten individual SH3-phages. In brief, His-Sam68 was coated to a 96-well plate, blocked and incubated with a dilution series of phage supernatants. Finally, bound phages were detected using an anti-M13-specific HRP-coupled antibody. As depicted in Fig. 1A, binding curves were obtained that are typical for a simple ligand-receptor relationship as is expected for an SH3-domain-PxxP-interaction showing no allosteric effects. Kd-values can not be deduced from these curves in the first instance, because the concentration of SH3 domains in the supernatants is unknown due to each phage particle presenting many copies on its surface. […]
(§3) Figure 1 Analysis of Sam68-binding SH3 domains in vitro. […] The amounts of bound phages were measured using a horseradish peroxidase-conjugated anti-M13-specific antibody with TMB-substrate detection at 450 nm (mean of three independent experiments, normalized to maximum OD-values). […] Bound proteins were eluted and Sam68 was detected by western blot analysis. […]

IS2#3 = target: T2, IS2#3 (Homo sapiens, UniProt Q9NZM3); details: n = 3
T2 construct: gene ITSN2
T2 sequence (Q9NZM3 981-1039): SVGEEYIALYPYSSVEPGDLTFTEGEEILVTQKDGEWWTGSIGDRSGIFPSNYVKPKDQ
Procedure: as §1, §2, §3

Src = Src (Homo sapiens, UniProt P12931); details: n = 3
Procedure: as §1, §2, §3

Nck1#2 = Nck1#2 (Homo sapiens, UniProt P16333); details: n = 3
Procedure: as §1, with “OD450. […]” for “OD450.”
First, we aimed at quantifying the binding affinities of the SH3-displaying phages to Sam68. […] Finally, bound phages were detected using an anti-M13-specific HRP-coupled antibody. […]
as §3

| Substance | Kd (β-Pix-SH3) | Kd (Hck) | Kd (IS2#3) | Kd (Src) | Kd (Nck1#2) |
| --- | --- | --- | --- | --- | --- |
| Pak2 | 59 nM |  |  |  |  |
| Src-associated in mitosis 68 kDa (KHDRBS1), full-length, N-terminally His-tagged recombinant [Sam68] |  | 31 nM | 59 nM | 6 nM | 31 nM |
